Data as given in patent US11168073B2, “3,3-difluoroallylamines or salts thereof and pharmaceutical compositions comprising the same” (YUHAN CORPORATION, priority 2018, dated 2021).
Structures can show the parent of a compound that is named as a salt. One block for each compound: values may come before it.

Key:
Assay type in all cases: biochemical
recombinant human VAP-1 = biological target: T1, recombinant human VAP-1 (Homo sapiens, UniProt Q16853); experiment: Activity evaluation on recombinant human VAP-1 (Amplex Red/HRP-coupled hydrogen peroxide assay, benzylamine substrate); settings: recombinant human VAP-1, benzylamine substrate; read-out: Inhibitory Activity (IC50, nM) human VAP-1
T1 construct: purchased R&D systems
T1 sequence (Q16853 1-763): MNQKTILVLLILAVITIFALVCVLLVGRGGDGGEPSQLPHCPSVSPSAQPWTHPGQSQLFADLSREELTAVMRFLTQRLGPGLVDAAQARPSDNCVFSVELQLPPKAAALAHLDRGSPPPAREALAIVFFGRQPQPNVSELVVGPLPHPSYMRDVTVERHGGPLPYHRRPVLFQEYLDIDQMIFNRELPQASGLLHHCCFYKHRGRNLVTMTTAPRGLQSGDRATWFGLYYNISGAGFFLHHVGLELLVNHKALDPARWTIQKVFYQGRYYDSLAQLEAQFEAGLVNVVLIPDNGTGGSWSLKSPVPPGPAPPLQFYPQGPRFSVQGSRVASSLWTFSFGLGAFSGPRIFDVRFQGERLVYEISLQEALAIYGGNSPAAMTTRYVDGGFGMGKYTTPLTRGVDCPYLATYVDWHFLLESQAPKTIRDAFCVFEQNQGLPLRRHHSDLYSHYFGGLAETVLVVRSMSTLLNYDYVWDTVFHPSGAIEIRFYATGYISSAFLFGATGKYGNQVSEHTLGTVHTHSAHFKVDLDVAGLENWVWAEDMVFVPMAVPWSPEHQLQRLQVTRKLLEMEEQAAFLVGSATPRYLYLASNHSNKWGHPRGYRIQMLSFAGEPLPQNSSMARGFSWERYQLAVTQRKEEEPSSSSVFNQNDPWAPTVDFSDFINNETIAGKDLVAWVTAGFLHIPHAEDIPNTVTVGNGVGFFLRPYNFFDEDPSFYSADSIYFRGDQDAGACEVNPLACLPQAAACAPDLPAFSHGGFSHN
Outline: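 Hydrogen peroxide from benzylamine (1 mM) oxidation by human recombinant VAP-1 detected via HRP-coupled Amplex Red (200 uM) fluorescence, kinetic over 1–2 h. Enzyme and compound preincubated 30 min at 37 °C, pH 7.4 phosphate; 8-point dose response, signal-rate decrease versus DMSO control fitted to four-parameter logistic for IC50.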

[1] = biological target: T2, recombinant human MAO-A (monoamine oxidase-A) (Homo sapiens, UniProt P21397); experiment: Activity evaluation on recombinant human MAO-A (Amplex Red/HRP-coupled assay, 0.5 mM tyramine substrate); settings: 0.5 mM tyramine substrate, read-out: Inhibitory Activity (IC50, nM) MAO-A
T2 construct: purchased Sigma-Aldrich
T2 sequence (P21397 1-527): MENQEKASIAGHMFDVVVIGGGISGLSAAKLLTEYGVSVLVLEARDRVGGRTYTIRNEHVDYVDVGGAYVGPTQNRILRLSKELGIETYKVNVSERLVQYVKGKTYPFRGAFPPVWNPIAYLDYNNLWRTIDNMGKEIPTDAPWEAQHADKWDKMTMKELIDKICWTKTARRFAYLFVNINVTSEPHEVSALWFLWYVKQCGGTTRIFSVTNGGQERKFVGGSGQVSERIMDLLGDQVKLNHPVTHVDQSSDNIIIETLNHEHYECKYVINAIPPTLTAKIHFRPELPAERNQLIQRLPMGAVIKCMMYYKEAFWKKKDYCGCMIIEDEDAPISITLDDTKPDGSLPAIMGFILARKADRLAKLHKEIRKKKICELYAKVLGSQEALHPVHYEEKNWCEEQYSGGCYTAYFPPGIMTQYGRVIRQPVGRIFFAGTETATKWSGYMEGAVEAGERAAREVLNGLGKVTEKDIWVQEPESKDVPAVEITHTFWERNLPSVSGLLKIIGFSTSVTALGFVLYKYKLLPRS
Outline: (§1)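 Using an HRP-coupled Amplex Red readout (544/590 nm, kinetic over 1–2 h), IC50 values were fitted by 4-parameter logistic model to percent decrease in signal rate against DMSO control. Compounds (1:3 dilutions, 8 points, <1% DMSO) sat 30 min at 37 °C with enzyme in pH 7.4 phosphate buffer before substrate, 200 uM Amplex Red and HRP were added.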

[2] = biological target: T3, recombinant human DAO (diamine oxidase) (Homo sapiens, UniProt P19801); experiment: Activity evaluation on recombinant human DAO (Amplex Red/HRP-coupled assay, 1 mM putrescine substrate); settings: 1 mM putrescine substrate, read-out: Inhibitory Activity (IC50, nM) DAO
T3 construct: purchased R&D systems
T3 sequence (P19801 20-751): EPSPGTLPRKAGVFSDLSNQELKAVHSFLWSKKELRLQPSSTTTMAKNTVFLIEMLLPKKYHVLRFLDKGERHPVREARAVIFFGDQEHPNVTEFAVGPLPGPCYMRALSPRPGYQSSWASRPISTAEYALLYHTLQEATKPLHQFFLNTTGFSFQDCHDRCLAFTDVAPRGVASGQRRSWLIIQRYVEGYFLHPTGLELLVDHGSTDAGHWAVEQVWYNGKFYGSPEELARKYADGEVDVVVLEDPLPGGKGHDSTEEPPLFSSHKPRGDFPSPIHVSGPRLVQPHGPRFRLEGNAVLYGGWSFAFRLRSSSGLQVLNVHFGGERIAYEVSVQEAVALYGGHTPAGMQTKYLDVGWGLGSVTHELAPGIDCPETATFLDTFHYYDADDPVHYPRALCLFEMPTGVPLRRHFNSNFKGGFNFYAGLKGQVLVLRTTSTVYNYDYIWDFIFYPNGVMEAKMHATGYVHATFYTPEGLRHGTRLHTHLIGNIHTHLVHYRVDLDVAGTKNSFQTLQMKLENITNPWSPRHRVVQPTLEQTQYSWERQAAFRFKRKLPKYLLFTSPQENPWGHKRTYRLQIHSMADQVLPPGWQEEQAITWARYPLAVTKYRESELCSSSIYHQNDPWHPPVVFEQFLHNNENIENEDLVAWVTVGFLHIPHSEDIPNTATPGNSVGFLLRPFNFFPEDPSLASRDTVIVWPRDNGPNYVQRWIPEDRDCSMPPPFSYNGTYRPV
Outline: as §1

[3] = biological target: T4, recombinant human MAO-B (monoamine oxidase-B) (Homo sapiens, UniProt P27338); experiment: Activity evaluation on recombinant human MAO-B (Amplex Red/HRP-coupled assay, 1 mM benzylamine substrate); settings: 1 mM benzylamine substrate, read-out: Inhibitory Activity (IC50, nM) MAO-B
T4 construct: purchased Sigma-Aldrich
T4 sequence (P27338 1-520): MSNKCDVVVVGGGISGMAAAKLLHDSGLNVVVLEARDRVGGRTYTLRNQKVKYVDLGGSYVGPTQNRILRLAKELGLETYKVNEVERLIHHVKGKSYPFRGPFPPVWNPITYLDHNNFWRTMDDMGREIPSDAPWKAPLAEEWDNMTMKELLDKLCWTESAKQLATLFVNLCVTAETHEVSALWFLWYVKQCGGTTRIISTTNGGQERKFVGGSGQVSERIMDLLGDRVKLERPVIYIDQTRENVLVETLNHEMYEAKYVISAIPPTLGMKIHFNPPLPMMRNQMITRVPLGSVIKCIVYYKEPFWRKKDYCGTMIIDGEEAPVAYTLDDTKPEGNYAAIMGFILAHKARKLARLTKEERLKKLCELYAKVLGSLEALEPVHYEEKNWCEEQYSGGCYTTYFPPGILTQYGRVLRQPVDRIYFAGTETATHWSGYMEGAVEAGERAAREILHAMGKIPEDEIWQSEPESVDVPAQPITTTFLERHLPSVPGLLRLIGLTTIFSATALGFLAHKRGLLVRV
Outline: as §1

SMILES: NCC(Cn1ncn(Cc2ccc(-c3ccc4c(c3)OCO4)cc2)c1=O)=C(F)F [Example 268, 2-[2-(aminomethyl)-3,3-difluoro-allyl]-4-[[4-(1,3-benzodioxol-5-yl)phenyl]methyl]-1,2,4-triazol-3-one Trifluoroacetate]
IC50 (recombinant human VAP-1): 2.1 nM
IC50 [1]: > 100000 nM
IC50 [2]: > 100000 nM
IC50 [3]: 1870 nM

SMILES: Cc1cc(-c2ccc(Cn3cnn(CC(CN)=C(F)F)c3=O)cc2)cc2c1NC(=O)CC2 [Example 269, 6-[4-[[1-[2-(aminomethyl)-3,3-difluoro-allyl]-5-oxo-1,2,4-triazol-4-yl]methyl]phenyl]-8-methyl-3,4-dihydro-1H-quinolin-2-one Trifluoroacetate]
IC50 (recombinant human VAP-1): 1 nM
IC50 [1]: > 100000 nM
IC50 [2]: 71000 nM
IC50 [3]: > 100000 nM

SMILES: CS(=O)(=O)c1ccc(-c2cccc(Cn3cnn(CC(CN)=C(F)F)c3=O)c2)cc1 [Example 272, 2-[2-(aminomethyl)-3,3-difluoro-allyl]-4-[[3-(4-methylsulfonylphenyl)phenyl]methyl]-1,2,4-triazol-3-one Trifluoroacetate]
IC50 (recombinant human VAP-1): 3.2 nM
IC50 [1]: > 100000 nM
IC50 [2]: 4330 nM
IC50 [3]: 23800 nM

SMILES: NCC(Cn1ncn(Cc2cccc(-c3ccc4c(c3)OCO4)c2)c1=O)=C(F)F [Example 274, 2-[2-(aminomethyl)-3,3-difluoro-allyl]-4-[[3-(1,3-benzodioxol-5-yl)phenyl]methyl]-1,2,4-triazol-3-one Trifluoroacetate]
IC50 (recombinant human VAP-1): 3.1 nM
IC50 [1]: > 100000 nM
IC50 [2]: 54100 nM
IC50 [3]: 125 nM

SMILES: Cc1cc(-c2cccc(Cn3cnn(CC(CN)=C(F)F)c3=O)c2)cc2c1NC(=O)CC2 [Example 275, 6-[3-[[1-[2-(aminomethyl)-3,3-difluoro-allyl]-5-oxo-1,2,4-triazol-4-yl]methyl]phenyl]-8-methyl-3,4-dihydro-1H-quinolin-2-one Trifluoroacetate]
IC50 (recombinant human VAP-1): 0.9 nM
IC50 [1]: > 100000 nM
IC50 [2]: 5160 nM
IC50 [3]: 25400 nM

SMILES: CCn1cc(-c2cccc(Cn3cnn(CC(CN)=C(F)F)c3=O)c2)ccc1=O [Example 277, 5-[3-[[1-[2-(aminomethyl)-3,3-difluoro-allyl]-5-oxo-1,2,4-triazol-4-yl]methyl]phenyl]-1-ethyl-pyridin-2-one Trifluoroacetate]
IC50 (recombinant human VAP-1): 2.5 nM
IC50 [1]: > 100000 nM
IC50 [2]: 1810 nM
IC50 [3]: 68600 nM

More lines, now with the values ahead:

IC50 (recombinant human VAP-1): 0.6 nM
IC50 [1]: > 100000 nM
IC50 [2]: > 100000 nM
IC50 [3]: > 100000 nM
SMILES: CCn1cc(-c2ccc(Cn3cnn(CC(CN)=C(F)F)c3=O)cc2)ccc1=O [Example 270, 5-[4-[[1-[2-(aminomethyl)-3,3-difluoro-allyl]-5-oxo-1,2,4-triazol-4-yl]methyl]phenyl]-1-ethyl-pyridin-2-one Trifluoroacetate]

IC50 (recombinant human VAP-1): 2.2 nM
IC50 [1]: > 100000 nM
IC50 [2]: > 100000 nM
IC50 [3]: 1590 nM
SMILES: CCn1cc(-c2cccc(Cn3cnn(CC(CN)=C(F)F)c3=O)c2)cn1 [Example 271, 2-[2-(aminomethyl)-3,3-difluoro-allyl]-4-[[3-(1-ethylpyrazol-4-yl)phenyl]methyl]-1,2,4-triazol-3-one Trifluoroacetate]

IC50 (recombinant human VAP-1): 1.8 nM
IC50 [1]: > 100000 nM
IC50 [2]: 39300 nM
IC50 [3]: 2900 nM
SMILES: CN(C)c1ccc(-c2cccc(Cn3cnn(CC(CN)=C(F)F)c3=O)c2)cn1 [Example 273, 2-[2-(aminomethyl)-3,3-difluoro-allyl]-4-[[3-[6-(dimethylamino)-3-pyridyl]phenyl]methyl]-1,2,4-triazol-3-one Trifluoroacetate]

IC50 (recombinant human VAP-1): 0.5 nM
IC50 [1]: > 100000 nM
IC50 [2]: 3080 nM
IC50 [3]: 2250 nM
SMILES: CN1C(=O)CCc2cc(-c3cccc(Cn4cnn(CC(CN)=C(F)F)c4=O)c3)ccc21 [Example 276, 6-[3-[[1-[2-(aminomethyl)-3,3-difluoro-allyl]-5-oxo-1,2,4-triazol-4-yl]methyl]phenyl]-1-methyl-3,4-dihydroquinolin-2-one Trifluoroacetate]

IC50 (recombinant human VAP-1): 17 nM
IC50 [1]: > 100000 nM
IC50 [2]: > 100000 nM
IC50 [3]: > 100000 nM
SMILES: CCn1cc(-c2ccccc2Cn2cnn(CC(CN)=C(F)F)c2=O)cn1 [Example 278, 2-[2-(aminomethyl)-3,3-difluoro-allyl]-4-[[2-(1-ethylpyrazol-4-yl)phenyl]methyl]-1,2,4-triazol-3-one trifluoroacetate]

IC50 (recombinant human VAP-1): > 100 nM
IC50 [1]: > 100000 nM
IC50 [2]: > 100000 nM
IC50 [3]: > 100000 nM
SMILES: CS(=O)(=O)c1ccc(-c2ccccc2Cn2cnn(CC(CN)=C(F)F)c2=O)cc1 [Example 279, 2-[2-(aminomethyl)-3,3-difluoro-allyl]-4-[[2-(4-methylsulfonylphenyl)phenyl]methyl]-1,2,4-triazol-3-one Trifluoroacetate]

IC50 (recombinant human VAP-1): 2380 nM
IC50 [1]: > 100000 nM
IC50 [2]: > 100000 nM
IC50 [3]: > 100000 nM
SMILES: NCC(Cn1ncn(Cc2ccccc2-c2ccc(N3CCNCC3)cc2)c1=O)=C(F)F [Example 280, 2-[2-(aminomethyl)-3,3-difluoro-allyl]-4-[[2-(4-piperazin-1-ylphenyl)phenyl]methyl]-1,2,4-triazol-3-one Ditrifluoroacetate]
